Laboratory results from patent publication US9611232B2, “Oxazolidinone and imidazolidinone compounds” (Hoffmann-La Roche Inc., priority 2012, dated 2017).

Experiments:
[1] = tested on: human melanoma; conditions: severe combined immunodeficiency mice; cited from earlier work
[2] = tested on: human endometrial cancer cells; conditions: nude mice; cited from earlier work
[3] = target: KCa3.1 (Homo sapiens (Human), UniProt O15554); assay: Thallium influx assay (FLIPR, FluxOR); assay type: cell-based; conditions: CHOK1 cells over-expressing KCa3.1; thallium (3.3 mM)/ionomycin (1 μM) activation
Experimental: The thallium influx assay was performed with CHOK1 cells over-expressing KCa3.1 obtained from Evotec and maintained in MEM Alpha medium supplemented with 10% fetal bovine serum, 100 U/ml penicillin/[…] streptomycin and 250 μg/ml G418.
CHOK1 wild type cells were passaged using F12/Ham's medium supplemented with 10% fetal bovine serum, 2 mM glutamine, 100 U/ml penicillin/[…] streptomycin. All cells were cultured in T175 flasks.
Before the day of the assay, cells were harvested from culture flasks using standard trypsin digestion. Cells were counted and densities adjusted and dispensed into 384-well poly-D-lysine coated plates at 7500 […], assay plates were incubated overnight in CO2 incubator at 37° C.
The following day, growth media was removed followed by the addition of 25 ul/well of FluxOR™ (Invitrogen) loading dye in a gluconate based assay buffer (135 mM NaGluconate,
2.5 mM Kgluconate, 2 mM CaNO3, 1 mM MgNO3, 10 mM HEPES (acid), 5 mM glucose pH adjusted to 7.4). Assay plates were incubated for 1 hour at 37° C. The loading dye was then replaced with gluconate assay buffer containing probenecid.
Compounds diluted in gluconate buffer were transferred into the assay plates (25 μl/well) followed by incubation for 20 minutes at room temperature. The assay plates were then transferred to a Fluorometric Imaging Plate Reader (FLIPR), a baseline was read for twenty second capture, followed by the addition of 25 μl/well of channel activation solution in gluconate buffer—for KCa3.1 cells thallium (3.3 mM)/ionomycin(1 μM) was used and for the wild type, ionomycin only, then fluorescence was monitored for another 90 seconds.

[4] = target: h KCa3.1 (Homo sapiens (Human), UniProt O15554); assay: Electrophysiology patch clamp (PatchXpress); assay type: cell-based; conditions: CHO cells over-expressing h KCa3.1, read-out: IC50 Ephys
Experimental: Electrophysiology Patch Clamp
Compounds were tested using a PatchXpress® (Model 7000A, Molecular Devices, Union City Calif.) on CHO cells over-expressing h KCa3.1 at ChanTest Corporation, 14656 Neo Parkway, Cleveland, Ohio.

[5] = tested on: allergen challenge-induced airway resistance and hyper-reactivity; conditions: sheep model of asthma; cited from earlier work
[6] = tested on: MDCK 3-D cyst; conditions: MDCK 3-D cyst model of ADPKD; cited from earlier work
[7] = tested on: trinitrobenzene sulfonic acid-induced colitis; conditions: mice; cited from earlier work
[8] = tested on: T-cell and macrophage infiltration; conditions: in combination with a Kv1.3 blocker; early stages of chronic kidney transplant rejection; cited from earlier work
[9] = tested on: neointimal smooth muscle hyperplasia; conditions: rats after carotid balloon angioplasty; cited from earlier work
[10] = tested on: renal fibrosis; conditions: unilateral ureteral obstruction model; cited from earlier work

| IC50 [3] [nM] | IC50 [4] [nM] | Compound | further results |
| --- | --- | --- | --- |
|  |  | Clc1ccccc1C(c1ccccc1)(c1ccccc1)n1ccnc1 [Clotrimazole] | number of metastases [1]: reduce the number of metastases; growth of tumours [2]: slowed the growth of tumours |
| 340 | 15 | NC(=O)CN1C(=O)OC(c2ccccc2F)(c2ccccc2F)[C@@H]1c1ccccc1F [Example 13, 2-[(S)-4,5,5-Tris-(2-fluoro-phenyl)-2-oxo-oxazolidin-3-yl]-acetamide] |  |
| 700 | 42 | NC(=O)CN1C(=O)OC(c2cccc(F)c2)(c2cccc(F)c2)[C@@H]1c1ccccc1F [Example 15, 2-[(S)-5,5-Bis-(3-fluoro-phenyl)-4-(2-fluoro-phenyl)-2-oxo-oxazolidin-3-yl]-acetamide] |  |
| 880 | 15 | NC(=O)CN1C(=O)OC(c2ccccc2)(c2ccccc2)[C@@H]1c1ccccc1F [Example 17, 2-[(S)-4-(2-Fluoro-phenyl)-2-oxo-5,5-diphenyl-oxazolidin-3-yl]-acetamide] |  |
| 740 | 63 | NC(=O)CN1C(=O)OC(c2ccc(F)cc2)(c2ccc(F)cc2)[C@@H]1c1ccccc1Cl [Example 19, 2-[(S)-4-(2-Chloro-phenyl)-5,5-bis-(4-fluoro-phenyl)-2-oxo-oxazolidin-3-yl]-acetamide] |  |
|  |  | NC(=O)C(c1ccccc1)(c1ccc(F)cc1)c1ccc(F)cc1 [Senicapoc] | allergen challenge-induced airway resistance and hyper-reactivity [5]: reduce allergen challenge-induced airway resistance and hyper-reactivity |
|  |  | Clc1ccccc1C(c1ccccc1)(c1ccccc1)n1cccn1 [TRAM-34] | cyst formation [6]: inhibits cyst formation; severity of the symptoms [7]: significantly reduced the severity of the symptoms; T-cell and macrophage infiltration [8]: reduced T-cell and macrophage infiltration; neointimal smooth muscle hyperplasia [9]: significantly reduced neointimal smooth muscle hyperplasia; renal fibrosis [10]: significantly reduced renal fibrosis |
